# Reference: the supplement of paper PMC11208160
# Assay: recombinant barcode read abundance after kanamycin selection (control-corrected) (log10(CPM+1)); higher = more efficient recombination; sequences stand for … in AGTGCAGAGAAAATCGGCCAGTTTTCTCTGCCTGCAGTCCGCATGCCGT…AGATTTATGCAGCGGACTGCCTTTCTCCCAAAGTGATAAACCGGACAGTATCATGGACCGGTTTTCCCGGTAATCCGTATTTGCAAGGTTGGTTTCACT; site = the 11-nt target
# Summary of the method: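 The screen was pooled in E. coli and paired targets with IS621 bridge RNA target-binding loops. Recombination efficiency is taken from barcode counts per million at recombinant junctions, averaged and adjusted against the control. Values, in the form log10(CPM+1), come from duplicate plating on chloramphenicol/ampicillin LB agar or on chloramphenicol/ampicillin/kanamycin with 0.1 mM IPTG.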
# 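Note: IS621 recombinase and bridge RNA in Escherichia coli cells.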
row,Sequence,recombinant barcode read abundance (log10)
1,GCCTGGGCTTGGGTTCTAACCTGTTGCCT (site GCCTGGGCTAG),0.317
2,GCCTGGGCTTGGGTTCTAACCTGTTGCCT (site GCCTTGGCTAG),0.438
3,GCCTTGGCTTGGGTTCTAACCTGTTGCCT (site GCCTGGGCTAG),0.195
4,GCCTTGGCTTGGGTTCTAACCTGTTGCCT (site GCCTTGGCTAG),0.572
5,GCGAACCCTTGGGTTCTAACCTGTTGCTT (site GCGAACCCTAA),1.47
6,GCGAACCCTTGGGTTCTAACCTGTTGCTT (site TCGAACCCTAA),0.0595
7,GCGACTCCTTGGGTTCTAACCTGTTGCTT (site GCGACTCCTAA),0.0299
8,GCGACTCCTTGGGTTCTAACCTGTTGCTT (site GCGACTCCTAG),0.0916
9,GCGCACACTTGGGTTCTAACCTGTTGCCT (site ACGCACACTAG),0.851
10,GCGCACACTTGGGTTCTAACCTGTTGCCT (site CCGCACACTAG),0.206
11,GCGCACACTTGGGTTCTAACCTGTTGCCT (site GCGCACACTAG),1.05
12,GCGCACACTTGGGTTCTAACCTGTTGCCT (site TCGCACACTAG),0.319
13,GCGCATCCTTGGGTTCTAACCTGTTGCCT (site GCGAATCCTAG),0.719
14,GCGCATCCTTGGGTTCTAACCTGTTGCCT (site GCGCATCCTAG),0.753
15,GCGCATCCTTGGGTTCTAACCTGTTGCCT (site GCGGATCCTAG),0.306
16,GCGCATCCTTGGGTTCTAACCTGTTGCCT (site GCGTATCCTAG),0.0569
17,GCGCGTTCTTGGGTTCTAACCTGTTGCCT (site GCGAGCTCTAG),0.054
18,GCGCGTTCTTGGGTTCTAACCTGTTGCCT (site GCGCGTTCTAG),1.2
19,GCGGCTTCTTGGGTTCTAACCTGTTGCCT (site GAGGCTTCTAG),0.0638
20,GCGGCTTCTTGGGTTCTAACCTGTTGCCT (site GCGGCTTCTAG),0.868
21,GCGGCTTCTTGGGTTCTAACCTGTTGCCT (site GGGGCTTCTAG),0.0151
22,GCGGCTTCTTGGGTTCTAACCTGTTGCCT (site GTGGCTTCTAG),0.121

row,Sequence,recombinant barcode read abundance (log10)
1,GCGTCGGCTTGGGTTCTAACCTGTTGCCT (site GCATCGGCTAG),0.474
2,GCGTCGGCTTGGGTTCTAACCTGTTGCCT (site GCCTCGGCTAG),0.177
3,GCGTCGGCTTGGGTTCTAACCTGTTGCCT (site GCGTCGGCTAG),0.183
4,GCGTCGGCTTGGGTTCTAACCTGTTGCCT (site GCTTCGGCTAG),0.405
5,GCGTGCCCTTGGGTTCTAACCTGTTGCCT (site CCGTGCCCTAG),0.552
6,GCGTGCCCTTGGGTTCTAACCTGTTGCCT (site GCGTGCCCTAG),0.82
7,GCTAACCCTTGGGTTCTAACCTGTTGCCT (site ACTAAACCTAG),0.5
8,GCTAACCCTTGGGTTCTAACCTGTTGCCT (site GCTAACCCTAG),1.18
9,GCTAGTTCTTGGGTTCTAACCTGTTGCTT (site ACTCGTTCTAA),0.0742
10,GCTAGTTCTTGGGTTCTAACCTGTTGCTT (site GCTAGTTCTAA),0.351
11,GCTCATACTTGGGTTCTAACCTGTTGCCT (site CACGCGCCTCC),0.0433
12,GCTCATACTTGGGTTCTAACCTGTTGCCT (site GCTCATACTAG),0.714
13,GCTCTAGCTTGGGTTCTAACCTGTTGCTA (site ACTCTAGCTGA),0.143
14,GCTCTAGCTTGGGTTCTAACCTGTTGCTA (site GCTCTAGCTTA),0.515
15,GCTGCGACTTGGGTTCTAACCTGTTGCCT (site GCAGCGACTAG),0.17
16,GCTGCGACTTGGGTTCTAACCTGTTGCCT (site GCCGCGACTAG),0.101
17,GCTGCGACTTGGGTTCTAACCTGTTGCCT (site GCGGCGACTAG),0.0147
18,GCTGCGACTTGGGTTCTAACCTGTTGCCT (site GCTGCGACTAG),0.972
19,GCTGCGCCTTGGGTTCTAACCTGTTGCCT (site GCCGGGCCTAG),0.225
20,GCTGCGCCTTGGGTTCTAACCTGTTGCCT (site GCTGCGCCTAG),1.05
21,GCTGGGTCTTGGGTTCTAACCTGTTGCTT (site GCAGGGTCTAA),0.466
22,GCTGGGTCTTGGGTTCTAACCTGTTGCTT (site GCCGGGTCTAA),0.284

row,Sequence,recombinant barcode read abundance (log10)
1,GCTGGGTCTTGGGTTCTAACCTGTTGCTT (site GCGGGGTCTAA),0.0202
2,GCTGGGTCTTGGGTTCTAACCTGTTGCTT (site GCTGGGTCTAA),1.65
3,GCTTGGACTTGGGTTCTAACCTGTTGCAG (site CCTTGGACTTT),0.175
4,GCTTGGACTTGGGTTCTAACCTGTTGCAG (site GCTTGGACTCT),1.72
5,GGAAGGCCTTGGGTTCTAACCTGTTGCTT (site GGAAGGCCTAA),0.221
6,GGAAGGCCTTGGGTTCTAACCTGTTGCTT (site TTGGTCACTTG),0.0545
7,GGACACTCTTGGGTTCTAACCTGTTGCTA (site GGACACTCTAG),2.32
8,GGACACTCTTGGGTTCTAACCTGTTGCTA (site GGACACTCTTA),2.15
9,GGACATTCTTGGGTTCTAACCTGTTGCTT (site GGACATTCTAA),0.319
10,GGACATTCTTGGGTTCTAACCTGTTGCTT (site TGACATTCTAA),0.0458
11,GGACCCTCTTGGGTTCTAACCTGTTGCAC (site GGACCCTCTGT),1.76
12,GGACCCTCTTGGGTTCTAACCTGTTGCAC (site TACAAGACTAC),0.0797
13,GGACCTCCTTGGGTTCTAACCTGTTGCTT (site GGACCTCCTAA),1.33
14,GGACCTCCTTGGGTTCTAACCTGTTGCTT (site GGACCTCCTAC),0.221
15,GGACCTCCTTGGGTTCTAACCTGTTGCTT (site GGACCTCCTAG),1.27
16,GGACCTCCTTGGGTTCTAACCTGTTGCTT (site GGACCTCCTAT),1.32
17,GGACGCACTTGGGTTCTAACCTGTTGCGG (site CCTAAGCCTAT),0.604
18,GGACGCACTTGGGTTCTAACCTGTTGCGG (site GGACGCACTCC),2.4
19,GGACGCCCTTGGGTTCTAACCTGTTGCCT (site GGACGACCTAG),0.427
20,GGACGCCCTTGGGTTCTAACCTGTTGCCT (site GGACGCCCTAG),1.35
21,GGACGCCCTTGGGTTCTAACCTGTTGCCT (site GGACGGCCTAG),0.186
22,GGACGCCCTTGGGTTCTAACCTGTTGCCT (site GGACGTCCTAG),0.426
